Laboratory results as given in patent publication US11578072B2, “Spiro-lactam NMDA receptor modulators and uses thereof” (Aptinyx Inc., priority 2018, dated 2023).

How the values were obtained:
[1] = IV pharmacokinetics in rats; details: Sprague Dawley, in vivo, rat, 2 mg/kg, normal saline
Procedure: Sprague Dawley rats were dosed intravenously using a normal saline formulation containing 2 mg/kg of the compounds identified in the below table. The table below summarizes the results of the IV pharmacokinetics.

[2] = system: Sprague Dawley rats; experiment: Bennett nerve injury assay (mechanical analgesia, paw withdrawal threshold); format: in vivo
Procedure: The Bennett model of mechanical analgesia is used to assess the analgesic effects of compounds as measured by paw withdrawal threshold. Bennett G J, Xie Y K, “A peripheral mononeuropathy in rat that produces disorders of pain sensation like those seen in man,” Pain 33:87-107, 1988. […] Vehicle animals receive the surgery and then receive vehicle rather than test compound. Animals were tested 1 hr, 24 h and 1 wk post-test compound or vehicle administration.
Male 2-3 month old Sprague Dawley rats were used. Harlan was the supplier for all studies. Rats were housed in Lucite cages with aspen wood chip bedding, maintained on a 12:12 light:dark cycle (lights on at 5 AM), and given ad libitum access to Purina lab chow (USA) and tap water throughout the study.
Rats were anesthetized using inhaled isoflurane (2.5%). Sciatic nerve chronic constriction nerve injury surgery was performed as previously described (Bennett and Xie, 1988). An incision (˜1.5 cm in length) was made with a scalpel blade dorsally through skin on the right hind limb, parallel and posterior to femur. Using a small pointed hemostat, the biceps femoris and gluteus superficialis muscles were separated. Using curved blunt forceps, the common sciatic nerve was isolated and exposed. For the mechanical analgesia studies, the whole sciatic nerve was ligated. Using hemostats/forceps and chromic gut (5-0), the nerve was loosely ligated with a square knot; 3 ligatures, 1 mm apart were placed on the nerve. […] Testing occurred approximately 2 weeks post-surgery.
During testing, rats were acclimated to the surface of a suspended wire mesh grid (1 cm×1 cm, with the wire being 0.3 cm in diameter) for 15-20 min. Starting from the smallest, each Von Frey filament was pressed perpendicularly to the plantar surface of the affected (ipsilateral) hind paw until slightly bent and then held for 6 second. If an obvious hind paw withdrawal or a flinching behavior immediately after the withdrawal of the filament was not observed, the next larger filament was used in the same manner. In case of a response, a lower filament was used. This was repeated until six responses were collected.
For all studies, animals were baselined prior to study start to test for allodynia (defined as a paw withdrawal threshold under 5). A subset of animals was tested with gabapentin (150 mg/kg, PO) to ensure at least 50% analgesia. Once it was confirmed animals were ready for study initiation, animals were balanced across groups. All study investigators were blind to treatment conditions. Animals were dosed with 0.1, 1 or 10 mg/kg of test compound via oral gavage (PO), control sets of animals were dosed with gabapentin (150 mg/kg, PO) or vehicle (0.5% Na-CMC in 0.9% sterile saline, PO). Testing occurred 1 h post-dosing with animals retested 24 hrs and 1 week post-dosing. The percent analgesia calculations for each animal were made using the following equation: % analgesia=[(log(x)−y)/((log (z)−y)]*100, where x=the paw withdrawal threshold for the drug-treated animal in grams, y=the average of the log(x) values for the vehicle treated group, and z=the paw withdrawal threshold for naïve animals in grams (historical value of 15 used). The results for Compound AD, where the percentage of analgesia is measured at 1 hour, 24 hours, and 1 week after compound administration are as follows: for 0.1 mg/kg dose: 38.7% at 1 h, 34.5% at 24 h, and 19.7% at 1 wk; for 1 mg/kg dose: 24.1% at 1 h, 26.5% at 24 h, and 13.2% at 1 wk; and for 10 mg/kg dose: 61.2% at 1 h, 45.1% at 24 h, and 39.5% at 1 wk.

[3] = target: T1, NMDAR2D (Homo sapiens, UniProt O15399+Q05586); experiment: NMDAR agonist assay, [3H]MK-801 binding, NMDAR2D expressing HEK cell membranes; format: biochemical; details: 50 μM glutamate, read-out: NMDAR2D B: log EC50 (converted)
T1 construct: expressed in transfected cells; host or cells: HEK cells (membrane extract)
Procedure: (§1) Assays were conducted as described by Moskal et al., “GLYX-13: a monoclonal antibody-derived peptide that acts as an N-methyl-D-aspartate receptor modulator,” Neuropharmacology, 49, 1077-87, 2005. These studies were designed to determine if the test compounds act to facilitate NMDAR activation in NMDAR2A, NMDAR2B, NMDAR2C or NMDAR2D expressing HEK cell membranes as measured by increases in [3H]MK-801 binding.
(§2) In the assay, 300 μg of NMDAR expressing HEK cell membrane extract protein was preincubated for 15 minutes at 25° C. in the presence of saturating concentrations of glutamate (50 μM) and varying concentrations of test compound (1×10^−15M-1×10^−7M), or 1 mM glycine. Following the addition of 0.3 μCi of [3H]MK-801 (22.5 Ci/mmol), reactions were again incubated for 15 minutes at 25° C. (nonequilibrium conditions). Bound and free [3H]MK-801 were separated via rapid filtration using a Brandel apparatus.
(§3) In analyzing the data, the DPM (disintegrations per minute) of [3H]MK-801 remaining on the filter were measured for each concentration of test compound or for 1 mM glycine. The DPM values for each concentration of a ligand (N=2) were averaged. The baseline value was determined from the best fit curve of the DPM values modeled using the GraphPad program and the log(agonist) vs. response(three parameters) algorithm was then subtracted from all points in the dataset. The % maximal [3H]MK-801 binding was then calculated relative to that of 1 mM glycine: all baseline subtracted DPM values were divided by the average value for 1 mM glycine. The EC50 and % maximal activity were then obtained from the best fit curve of the % maximal [3H]MK-801 binding data modelled using the GraphPad program and the log(agonist) vs. response(three parameters) algorithm.
(§4) The tables below summarize the results for the wild type NMDAR agonists NMDAR2A, NMDAR2B, NMDAR2C, and NMDAR2D, and whether the compound is not an agonist (−), is an agonist (+), or is a strong agonist (++), where column A is based on the % maximal [3H]MK-801 binding relative to 1 mM glycine (−=0; <100%=+; and >100%=++); and column B is based on log EC50 values (0=−; >1×10^−9 M (e.g., −8)=+; and <1×10^−9 M (e.g., −10)++).

[4] = target: T2, NMDAR2D (Homo sapiens, UniProt O15399); experiment: as above; format: biochemical; details: 50 μM glutamate
T2 construct: expressed in transfected cells; host or cells: HEK cells (membrane extract)
Procedure: as §1, §2, §3, §4

[5] = Plasma stability (Rat); format: in vitro ADME; details: after 60 minutes
Procedure: Plasma stability of disclosed compounds was investigated. The following table indicates the percent of compound remaining after 60 minutes.

T2 sequence (O15399 28-1336, species assumed, other chains not shown): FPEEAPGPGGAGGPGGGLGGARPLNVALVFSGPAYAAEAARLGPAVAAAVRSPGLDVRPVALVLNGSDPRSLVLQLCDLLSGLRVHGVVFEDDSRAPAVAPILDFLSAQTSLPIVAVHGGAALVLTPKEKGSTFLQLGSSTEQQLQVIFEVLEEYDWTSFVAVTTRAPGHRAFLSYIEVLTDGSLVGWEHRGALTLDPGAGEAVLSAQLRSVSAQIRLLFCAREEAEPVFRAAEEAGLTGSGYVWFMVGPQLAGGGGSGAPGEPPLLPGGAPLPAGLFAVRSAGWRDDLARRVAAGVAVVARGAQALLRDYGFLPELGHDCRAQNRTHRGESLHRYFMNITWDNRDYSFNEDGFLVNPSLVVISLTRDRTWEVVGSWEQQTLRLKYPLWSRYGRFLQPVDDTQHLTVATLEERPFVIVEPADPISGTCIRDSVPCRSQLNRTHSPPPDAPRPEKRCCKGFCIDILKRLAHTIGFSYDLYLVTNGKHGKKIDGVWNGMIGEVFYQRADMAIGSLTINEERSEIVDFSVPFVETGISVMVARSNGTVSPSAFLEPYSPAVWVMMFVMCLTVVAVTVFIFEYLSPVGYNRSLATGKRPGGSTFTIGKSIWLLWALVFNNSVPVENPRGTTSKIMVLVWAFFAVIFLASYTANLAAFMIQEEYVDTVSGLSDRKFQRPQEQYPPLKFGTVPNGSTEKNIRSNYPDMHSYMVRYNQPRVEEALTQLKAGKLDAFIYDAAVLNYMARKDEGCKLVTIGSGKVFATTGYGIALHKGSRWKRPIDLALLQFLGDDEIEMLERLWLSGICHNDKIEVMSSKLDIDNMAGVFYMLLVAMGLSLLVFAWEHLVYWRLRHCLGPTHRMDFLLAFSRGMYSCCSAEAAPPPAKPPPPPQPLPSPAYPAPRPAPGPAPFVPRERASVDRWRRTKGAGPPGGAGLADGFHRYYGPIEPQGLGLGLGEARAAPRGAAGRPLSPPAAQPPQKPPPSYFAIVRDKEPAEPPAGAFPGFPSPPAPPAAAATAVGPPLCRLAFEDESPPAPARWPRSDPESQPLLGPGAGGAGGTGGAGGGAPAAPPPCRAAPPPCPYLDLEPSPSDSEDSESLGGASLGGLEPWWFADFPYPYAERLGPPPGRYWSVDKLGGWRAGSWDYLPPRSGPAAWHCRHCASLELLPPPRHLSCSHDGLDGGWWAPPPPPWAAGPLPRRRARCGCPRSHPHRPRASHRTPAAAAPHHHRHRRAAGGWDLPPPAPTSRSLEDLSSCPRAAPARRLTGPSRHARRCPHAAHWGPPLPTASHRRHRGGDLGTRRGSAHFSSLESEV
T1 sequence (O15399 28-1336, species assumed, other chains not shown): as above

`CC(C)C(=O)N1CCC2(CCCNC2=O)CC1` [Compound AD, 9-isobutyryl-2,9-diazaspiro[5.5]undecan-1-one] gave an AUC(0-t) [1] of 5280 ng·h/mL, a Cmax [1] of 3790 ng/mL and a clearance [1] of 6.22 mL/min/kg. The half-life [1] was 6.37 h, the Vd ([1]; read-out: Vss) was 0.92 L/kg and the “% analgesia” value ([2]; 0.1 mg/kg PO, 1 wk) was 19.7%. For the same molecule, the “% analgesia” value ([2]; 0.1 mg/kg PO, 1 h) was 38.7%, the “% analgesia” value ([2]; 0.1 mg/kg PO, 24 h) was 34.5% and the “% analgesia” value ([2]; 1 mg/kg PO, 1 wk) was 13.2%. The “% analgesia” value ([2]; 1 mg/kg PO, 1 h) was 24.1%, the “% analgesia” value ([2]; 1 mg/kg PO, 24 h) was 26.5% and the “% analgesia” value ([2]; 10 mg/kg PO, 1 wk) was 39.5%. For the same molecule, the “% analgesia” value ([2]; 10 mg/kg PO, 1 h) was 61.2%, the “% analgesia” value ([2]; 10 mg/kg PO, 24 h) was 45.1% and the EC50 [3] was less than 1 nM. For the same molecule, the “NMDAR2D A: % maximal [3H]MK-801 binding relative to 1 mM glycine” value [4] was “+ (<100%=+)” and the “Plasma (Rat): percent of compound remaining” value [5] was 95%.
